Measured values from paper PMC9421655, “Novel Antagonist of the Type 2 Lysophosphatidic Acid Receptor (LPA2), UCM-14216, Ameliorates Spinal Cord Injury in Mice” (Journal of Medicinal Chemistry, 2022).
Entries after “also recorded” stand apart in the source; their conditions may differ.

What was measured:
[1] = target: T1, LPA2 mutant Q108A (Homo sapiens, UniProt Q9HBW0, Q105A); assay: Ca2+ mobilization in McA-RH7777 cells transfected with LPA2 point mutant Q108A; format: cell-based; details: 54 at 10 μM, 10 μM LPA
T1 construct: host or cells: McA-RH7777 (CRL-1601, ATCC), transient, pcDNA3.1
T1 sequence (Q9HBW0 whole entry Q105A): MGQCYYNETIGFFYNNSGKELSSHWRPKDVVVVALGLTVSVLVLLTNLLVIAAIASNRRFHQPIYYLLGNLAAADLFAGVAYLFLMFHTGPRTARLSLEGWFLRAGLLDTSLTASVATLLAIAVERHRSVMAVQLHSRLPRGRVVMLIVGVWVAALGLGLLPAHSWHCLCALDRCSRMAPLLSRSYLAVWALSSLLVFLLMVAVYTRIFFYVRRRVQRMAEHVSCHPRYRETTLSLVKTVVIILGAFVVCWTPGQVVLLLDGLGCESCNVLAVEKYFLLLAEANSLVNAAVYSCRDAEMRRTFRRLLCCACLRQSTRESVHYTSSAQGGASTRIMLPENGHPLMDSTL

[2] = target: T2, LPA2 mutant R107A (Homo sapiens, UniProt Q9HBW0, R104A); assay: Ca2+ mobilization in McA-RH7777 cells transfected with LPA2 point mutant R107A; format: cell-based; details: 54 at 10 μM, 10 μM LPA
T2 construct: host or cells: McA-RH7777 (CRL-1601, ATCC), transient, pcDNA3.1
T2 sequence (Q9HBW0 whole entry R104A): as the sequence (Q9HBW0 whole entry Q105A) above, with R104A, A105Q counted along it

[3] = test system: spinal cord injury in C57Bl/6J mice; assay: Spinal cord contusion injury model, locomotor recovery (Basso Mouse Scale); format: in vivo; details: C57Bl/6 mice
Text: BMS is the gold standard test used for locomotor scoring after SCI in which two blinder observers score the mouse motor performance based on a nine-point scale.[28]

[4] = target: T3, LPA2 (Homo sapiens, UniProt Q9HBW0); assay: Ca2+ mobilization assay, antagonist activity at LPA2; format: cell-based; set-up: Emax: dose or concentration left out as unconfirmed
T3 construct: expressed in transfected cells
T3 sequence (Q9HBW0 whole entry, species assumed): as the sequence (Q9HBW0 whole entry Q105A) above, with A105Q counted along it
Protocol: (§1) Cells stably expressing the corresponding LPA1–3 receptor were grown as described previously.[18] Changes in intracellular calcium levels were measured by using the fluorescent calcium sensitive dye Fluo-4 NW (Invitrogen). RH7777 cells or B103 cells were plated on poly-D-lysine or collagen coated, respectively, black-wall clear-bottom 96-well plates (Corning) at a density of 50 000 cells/well and cultured overnight. The culture medium was then replaced with 100 μL of Fluo-4 NW dye loading solution containing 2.5 μM of probenecid and incubated for 30 min at 37 °C followed by an additional 30 min at rt. […] Fluorescence changes were registered in a FluoStar Optima instrument (BMG Labtech) at 525 nm using an excitation wavelength of 494 nm. […] The data presented are from two to four independent experiments carried out in triplicate or quadruplicate. Dose–response curves were generated and IC50 values calculated by nonlinear regression analysis using Prism software version 5 (GraphPad Software Inc., San Diego, CA, USA).
Figure S2. Dose response curves for compounds 13, 44, 53, 54, and 55. B103 cells stably expressing LPA2 receptor were incubated with different concentrations of the compound under study and […]
Curves were generated with PRISM software version 5 (GraphPad Software Inc, San Diego, CA, USA) using nonlinear regression analysis. Each data point corresponds to the mean±SEM of two to four independent experiments carried out in triplicate or quadruplicate.

[5] = test system: spinal cord injury in LPA2 null mice; assay: Spinal cord contusion injury model in LPA2 null mice (Basso Mouse Scale); format: in vivo; details: 25 mg/kg i.p. daily for 10 days
Protocol: Effect of i.p. injection of 54 (25 mg/kg) or vehicle on locomotor recovery in (A) C57bl/6 mice and (B) LPA2 deficient mice quantified using the 0 (absence of movement) to 9 (completely normal locomotor behavior) Basso Mouse Scale (BMS). Data are expressed as mean ± s.e.m. and correspond to seven animals per group in A and five animals per group in B. * p < 0.05 compared with vehicle-treated group (two-way repeated measures ANOVA with Bonferroni’s post hoc test for multiple comparisons).
All Surgical Procedures Were Approved by the Universitat Autònoma De Barcelona Animal Care Committee (CEEAH 4273) and followed the guidelines of the European Commission on Animal Care (EU Directive 2010/63/EU). Adult female C57Bl/6J mice (10–12 weeks old) and LPA2 null mice were anesthetized by intramuscular injection with a mixture of ketamine and xylazine (90:10 mg/kg). A laminectomy was performed at the 11th thoracic vertebrae and the exposed spinal cord was contused using the Infinite Horizon Impactor device (Precision Scientific Instrumentation) using a force of 60 kdynes. Only mice showing a spinal cord tissue displacement ranging between 450 and 550 μm were selected.

[6] = target: LPA4 (Homo sapiens, UniProt Q99677); details: in abstract
Sequence of LPA4 (Q99677 whole entry, species assumed): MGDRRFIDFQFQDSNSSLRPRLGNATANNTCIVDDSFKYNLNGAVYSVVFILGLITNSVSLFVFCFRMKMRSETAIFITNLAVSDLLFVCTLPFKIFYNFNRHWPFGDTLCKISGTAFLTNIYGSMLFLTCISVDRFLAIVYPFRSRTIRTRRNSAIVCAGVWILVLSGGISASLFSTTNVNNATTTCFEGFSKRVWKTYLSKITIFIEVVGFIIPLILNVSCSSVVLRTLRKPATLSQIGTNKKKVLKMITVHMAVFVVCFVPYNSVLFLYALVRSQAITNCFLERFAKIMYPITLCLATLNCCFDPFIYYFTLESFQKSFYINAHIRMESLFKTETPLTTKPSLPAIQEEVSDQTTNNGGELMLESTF
Protocol: (§2) The assay was analyzed using a benchtop Compensated Interferometric Reader (CIR) that measured the light refractive index (ΔRI) change from binding-induced conformational and/or hydration changes produced by real time binding events in a sample (receptor containing nanovesicles plus compound) and compared to a nonbinding reference (RI matched buffer plus compound).[30] Finally, the interferometric signal from vector nanovesicles binding (nonspecific) to compound was subtracted from the LPA2,4–6 containing nanovesicles binding (total) to compound, to determine the specific binding interactions of the compounds to LPA2,4–6. The concentration-dependent change in RI (ΔRI) signal from the compounds to LPA2,4–6 or vector was fitted using the single site total vs nonspecific binding isotherm using GraphPad Prism. Specific KD values were determined by fitting the total minus nonspecific signal to a single site binding isotherm.
(§3) The detailed free solution assay method was described previously.[25],[26] All the compounds were dissolved in 100% DMSO, aliquoted, and frozen at −80 °C for 1 week. The compound dilution series was freshly prepared in 0.5% DMSO/PBS (pH 7.4) to keep the maximum compound in solution. […]

[7] = target: LPA5 (Homo sapiens, UniProt Q9H1C0); details: in abstract
Sequence of LPA5 (Q9H1C0 whole entry, species assumed): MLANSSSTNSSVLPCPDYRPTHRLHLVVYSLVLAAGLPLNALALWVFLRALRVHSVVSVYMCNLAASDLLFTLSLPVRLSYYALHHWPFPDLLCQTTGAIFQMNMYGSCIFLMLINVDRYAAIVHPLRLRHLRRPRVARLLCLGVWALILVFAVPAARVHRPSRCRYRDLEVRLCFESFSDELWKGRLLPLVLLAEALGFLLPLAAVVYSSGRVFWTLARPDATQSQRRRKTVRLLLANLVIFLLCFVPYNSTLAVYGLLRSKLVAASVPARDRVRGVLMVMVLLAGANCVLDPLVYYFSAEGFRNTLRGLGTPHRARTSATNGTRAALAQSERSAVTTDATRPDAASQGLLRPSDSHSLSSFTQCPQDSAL
Protocol: as §2, §3

[8] = target: T4, LPA3 (Homo sapiens, UniProt Q9UBY5); assay: cell-based; details: maximum blockade of activation induced by 10 μM LPA (18:1) at 10 μM compound; N.E. = no effect at 10 μM
T4 sequence (Q9UBY5 1-353): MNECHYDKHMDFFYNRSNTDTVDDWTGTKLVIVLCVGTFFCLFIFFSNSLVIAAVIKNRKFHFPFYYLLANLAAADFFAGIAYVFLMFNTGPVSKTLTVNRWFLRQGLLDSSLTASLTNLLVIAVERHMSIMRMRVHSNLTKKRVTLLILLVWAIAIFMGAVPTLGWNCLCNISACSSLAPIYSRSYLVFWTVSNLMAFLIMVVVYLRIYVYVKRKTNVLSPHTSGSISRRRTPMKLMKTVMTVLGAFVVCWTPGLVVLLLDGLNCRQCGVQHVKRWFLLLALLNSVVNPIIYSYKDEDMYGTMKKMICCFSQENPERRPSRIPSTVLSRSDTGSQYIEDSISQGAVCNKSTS
Protocol: as §1

[9] = In vivo levels of compound in plasma, spinal cord and brain (HPLC-MS); details: 25 mg/kg i.p.
Protocol: At 1, 2, and 4 h after drug administration (n = 3 for each time and sample), mice were sacrificed and their brains, spinal cords, and blood were obtained. The brain and spinal cord were immediately frozen and kept at −80 °C until analysis. Blood was allowed to clot at rt for 30 min and centrifuged at 4 °C for 10 min at 16 000g. Serum was transferred to a clean polypropylene tube and stored at −80 °C until analysis. For analysis, a volume of cold acetonitrile was added to the serum. The sample was incubated in an ice bath for 10 min and centrifuged at 4 °C for 10 min at 16 000g. The resulting organic layer was filtered through a PTFE filter (0.2 μm, 13 mm diameter, Fisher Scientific) and 20 μL of the sample analyzed by LC-MS/MS at the UCM’s Mass Spectrometry CAI. Separation was performed using a Phenomenex Gemini 5 μm C18 110A 150 × 2 mm column (run time 8 min; flow 0.5 mL/min; gradient: 0.5 min 10% Phase B, 2 min 60% Phase B, 4.5–6 min 100% Phase B, 7–8 min 10% Phase B; Phase A: water with formic acid 0.1%; Phase B: acetonitrile). […] The mass spectrometer ion optics were set in the multiple reaction monitoring mode and the transition selected for quantification was 432.90 > 215.10 (CE: −30 V).

[10] = target: T5, LPA2 K278A mutant (Homo sapiens, UniProt Q9HBW0, K275A); assay: Ca2+ mobilization in McA-RH7777 cells transfected with LPA2 point mutant K278A; format: cell-based
T5 construct: host or cells: McA-RH7777 (CRL-1601, ATCC), transient, pcDNA3.1
T5 sequence (Q9HBW0 whole entry K275A): as the sequence (Q9HBW0 whole entry Q105A) above, with A105Q, K275A counted along it

Cc1[nH]nc(-c2ccc(OCc3nnn[nH]3)cc2O)c1Oc1ccc(Cl)cc1Cl [Compound 54]
agonist/antagonist activity at LPA2 Q108A mutant [1]: no significant agonist nor antagonist activity | melting point: 180 to 182 °C | agonist/antagonist activity at LPA2 R107A mutant [2]: no significant agonist nor antagonist activity | BMS score ([3]; 25 mg/kg i.p. daily for 10 days from 1 h after lesion, day 50 postinjury, scale 0-9): 4.1 ± 0.3 | locomotor recovery after SCI (BMS) ([3]; 25 mg/kg i.p. daily for 10 days, significant from day 35 postinjury onward): significant improvement in locomotor recovery after SCI | Emax [4]: 90 ± 2% | IC50 ([4]; antagonism of 10 μM LPA, mean ± s.e.m.): 1.9 µM | locomotor recovery after SCI (BMS) [5]: did not induce any significant effect; also recorded: inactive | activity at LPA4 receptor [6]: inactive | activity at LPA5 receptor [7]: inactive | Emax (%) LPA3 [8]: inactive and N.E. | time of maximum levels in spinal cord and brain [9]: one hour postadministration | functional activity at LPA2 K278A mutant ([10]; 10 μM): behaved as an agonist | activation of LPA2 K278A mutant ([10]; at 10 μM, stimulation by 10 μM LPA normalized to 100%): 75 ± 5%
